This is an account of results in patent publication US20230225315A1, “METHODS OF DELIVERING PLANT VIRUS-BASED NANOPESTICIDES” (priority 2019, published 2023).

Series [1] can be described thus: Soil column mobility (soil transport behaviour). It is filed as physicochemical. The procedure:
[…] […] (pH 7.0) to the centre of the soil surface at the top of the column We added 10 mM KP buffer (pH 7.0) at a constant flow rate of 1.5 ml min^−1 and collected the eluent in 500-μL fractions. Up to 150 fractions were collected in each trial (two trials for each formulation and depth) and stored at 4° C.
The elution fractions containing TMGMV, PhMV or CPMV were analysed by SDS-PAGE to determine the mass of nanoparticles recovered in each elution fraction. […] TMGMV and PhMV were analysed on 4-12% NuPage polyacrylamide SDS gels cast according to the Surecast Handcast protocol (Invitrogen). […]
All nanoparticles were imaged in triplicate and the images were analysed using ImageJ The area under the curve (AUC) of the standards was used to create a linear standard curve relating the AUC of the elution samples to the total mass of nanoparticles present in the corresponding elution fraction. […]
To establish the soil transport behaviour of each formulation, we conducted mobility studies using a cylindrical column of diameter 28 mm packed with topsoil at a constant bulk density of 0.32 g cm^−3. […] Fractions containing virus-based formulations were analysed by SDS-PAGE to determine the mass of recovered nanoparticles. […]

For series [2] the following is noted: cited from earlier work.
In series [3] the test system is nematode. The settings on record: concentration to be achieved in the rhizosphere; cited from earlier work.

As for Cyanine 5 [Cy5], in series [1] (500 μg free Cy5, soil column 10 mm diameter), the “soil depth penetrated by free Cy5” value was ≤ 4 cm. For the same substance, the “mass of injected Cy5 recovered” value in series [1] (free Cy5, column with a soil depth of 2 cm) is on record as “About 40%”.
Consider abamectin, for which the solubility in water result in series [2] is given as “insoluble”. Further, the IC50 value in series [3] was 1.309×10^−4 mg cm^−3.
